SMILES strings stand for the structures.

Assay [1] concerns the target human activated kallikrein enzyme (Homo sapiens, UniProt P03952). Description: Plasma kallikrein inhibition, fluorogenic PFR-AMC substrate, 500 pM activated kallikrein format. Format: biochemical. The settings on record: 500 pM activated kallikrein, 300 uM PFR-AMC, 30 min preincubation, 10 min reaction; read-out: Primary Dose Response Assay: Average EC50. A digest of the protocol: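 Enzyme at 500 pM preincubated 30 min RT with inhibitors in 20 mM Tris pH 7.5, 1 mM EDTA, 150 mM NaCl, 0.1% PEG-400, 0.1% Triton X-100. Reaction started with 300 uM PFR-AMC, run 10 min RT; fluorescence read at 460 nm emission, 380 nm excitation. EC50 reported in ranges.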

A further assay has as its target T1, plasma kallikrein (Homo sapiens, UniProt P03952).
T1 construct: from tissue
The assay is described as follows: Neat human plasma assay, FXIIa contact pathway-activated, PFR-AMC substrate. Particulars: citrated human plasma 78% final, 10 nM human FXIIa, 100 μM PFR-AMC; read-out: Human Plasma Assay: IC90. In kind it is biochemical. The gist of the method: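 Citrated human plasma (78% final) with compound, contact-activated by 10 nM human FXIIa in pKal buffer pH 7.5, with 100 μM PFR-AMC. Fluorescence (360/480 nm) followed 5 min at room temperature; rates versus concentration fitted by 4-parameter equation for IC50/IC90.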

T1 sequence (P03952 391-638 limits assumed): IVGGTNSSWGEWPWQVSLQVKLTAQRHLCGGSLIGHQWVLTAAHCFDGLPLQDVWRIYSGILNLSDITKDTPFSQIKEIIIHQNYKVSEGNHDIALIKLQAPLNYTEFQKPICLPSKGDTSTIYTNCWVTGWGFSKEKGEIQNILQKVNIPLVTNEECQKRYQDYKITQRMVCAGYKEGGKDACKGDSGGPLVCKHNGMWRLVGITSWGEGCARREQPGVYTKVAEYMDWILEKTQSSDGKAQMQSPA
T1 sequence (P03952 20-390 partner limits assumed): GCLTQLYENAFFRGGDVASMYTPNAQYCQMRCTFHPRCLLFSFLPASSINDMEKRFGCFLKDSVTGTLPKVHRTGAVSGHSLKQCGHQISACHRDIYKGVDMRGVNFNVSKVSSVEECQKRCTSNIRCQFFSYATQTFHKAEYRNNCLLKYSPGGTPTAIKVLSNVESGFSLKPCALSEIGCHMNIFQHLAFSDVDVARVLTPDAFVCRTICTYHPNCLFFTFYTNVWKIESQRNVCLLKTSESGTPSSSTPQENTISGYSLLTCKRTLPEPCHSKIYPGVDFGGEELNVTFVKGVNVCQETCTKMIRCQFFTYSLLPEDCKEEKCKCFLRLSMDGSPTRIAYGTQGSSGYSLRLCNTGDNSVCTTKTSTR
Sequence of human activated kallikrein enzyme (P03952 391-638 limits assumed): as the sequence (P03952 391-638 limits assumed) above
Sequence of human activated kallikrein enzyme (P03952 20-390 partner limits assumed): as the sequence (P03952 20-390 partner limits assumed) above

Turning to `CCN1CCN(c2cc(C3CC3)cn3cc(CNc4ccnc(NC(=O)[C@H]5C[C@@H]5c5cccc(Cl)c5)c4)nc23)CC1` [Example I-234, (1S,2S)-2-(3-chlorophenyl)-N-(4-(((6-cyclopropyl-8-(4-ethylpiperazin-1-yl)imidazo[1,2-a]pyridin-2-yl)methyl)amino)pyridin-2-yl)cyclopropane-1-carboxamide], the EC50 in assay [1] is less than 1 nM. Further, the IC90 on plasma kallikrein was less than 400 nM.
The corresponding values for `CS(=O)(=O)c1cc(C2CC2)cn2cc(CNc3ccnc(NC(=O)[C@H]4C[C@@H]4c4cccc(Cl)c4)c3)nc12` [Example I-235, (1S,2S)-2-(3-chlorophenyl)-N-(4-(((6-cyclopropyl-8-(methylsulfonyl)imidazo[1,2-a]pyridin-2-yl)methyl)amino)pyridin-2-yl)cyclopropane-1-carboxamide] are less than 1 nM and 400 to 1500 nM.
For the compound `CC(O)c1cc(C2CC2)cn2cc(CNc3ccnc(NC(=O)[C@H]4C[C@@H]4c4cccc(Cl)c4)c3)nc12` (stereo partly drawn) [Example I-236, (1S,2S)-2-(3-chlorophenyl)-N-(4-(((6-cyclopropyl-8-(1-hydroxyethyl)imidazo[1,2-a]pyridin-2-yl)methyl)amino)pyridin-2-yl)cyclopropane-1-carboxamide], the EC50 in assay [1] is less than 1 nM. At plasma kallikrein, the concentration for an effect of 90% (IC90) was greater than 48000 nM.
The corresponding values for `CC(=O)c1cc(C2CC2)cn2cc(CNc3ccnc(NC(=O)[C@H]4C[C@@H]4c4cccc(Cl)c4)c3)nc12` [Example I-237, (1S,2S)-N-(4-(((8-acetyl-6-cyclopropylimidazo[1,2-a]pyridin-2-yl)methyl)amino)pyridin-2-yl)-2-(3-chlorophenyl)cyclopropane-1-carboxamide] are less than 1 nM and 1500 to 10000 nM.
In the case of `O=C(Nc1cc(NCc2cn3cc(C4CC4)cc(N4CCOC4=O)c3n2)ccn1)[C@H]1C[C@@H]1c1cccc(Cl)c1` [Example I-238, (1S,2S)-2-(3-chlorophenyl)-N-(4-(((6-cyclopropyl-8-(2-oxooxazolidin-3-yl)imidazo[1,2-a]pyridin-2-yl)methyl)amino)pyridin-2-yl)cyclopropane-1-carboxamide], the EC50 in assay [1] is less than 1 nM. For the same compound, the 90% effect concentration (IC90) on plasma kallikrein was less than 400 nM.
For the compound `COC(=O)CCc1cc(C2CC2)cn2cc(CNc3ccnc(NC(=O)[C@H]4C[C@@H]4c4cccc(Cl)c4)c3)nc12` [Example I-239, methyl 3-(2-(((2-((1S,2S)-2-(3-chlorophenyl)cyclopropane-1-carboxamido)pyridin-4-yl)amino)methyl)-6-cyclopropylimidazo[1,2-a]pyridin-8-yl)propanoate], the EC50 in assay [1] is less than 1 nM. Also, on plasma kallikrein, the IC90 fell in the range of 1500 to 10000 nM.
For `CCOC(=O)CCc1cc(C2CC2)cn2cc(CNc3ccnc(NC(=O)[C@H]4C[C@@H]4c4cccc(Cl)c4)c3)nc12` [Example I-240, ethyl 3-(2-(((2-((1S,2S)-2-(3-chlorophenyl)cyclopropane-1-carboxamido)pyridin-4-yl)amino)methyl)-6-cyclopropylimidazo[1,2-a]pyridin-8-yl)propanoate], the EC50 in assay [1] lay in the range of 1 to 10 nM. The IC90 at plasma kallikrein fell in the range of 1500 to 10000 nM.
As for `CN1CCN(c2cc(C3CC3)cn3cc(CNc4cc(NC(=O)[C@H]5C[C@@H]5c5cccc(Cl)c5)ccn4)nc23)CC1` [Example I-243, (1S,2S)-2-(3-chlorophenyl)-N-(2-(((6-cyclopropyl-8-(4-methylpiperazin-1-yl)imidazo[1,2-a]pyridin-2-yl)methyl)amino)pyridin-4-yl)cyclopropane-1-carboxamide], in assay [1], the EC50 is less than 1 nM. Moreover, the IC90 on plasma kallikrein lay in the range of 400 to 1500 nM.
`Cc1ccnc([C@H]2C[C@@H]2C(=O)Nc2cc(N(C)Cc3cn4cc(C5CC5)cc(N5CC(=O)N(C)C5=O)c4n3)cnn2)n1` [Example I-254, (1S,2S)-N-(5-(((6-cyclopropyl-8-(3-methyl-2,4-dioxoimidazolidin-1-yl)imidazo[1,2-a]pyridin-2-yl)methyl)(methyl)amino)pyridazin-3-yl)-2-(4-methylpyrimidin-2-yl)cyclopropane-1-carboxamide]: in assay [1], the EC50 was less than 1 nM. The IC90 on plasma kallikrein is less than 400 nM.
With `Cc1ccnc([C@H]2C[C@@H]2C(=O)Nc2cc(N(C)Cc3cn4cc(C5CC5)cc(N5CC(=O)N(CCOCc6ccccc6)C5=O)c4n3)cc(C3CC3)n2)n1` [Example I-636, (1S,2S)—N-(4-(((8-(3-(2-(benzyloxy)ethyl)-2,4-dioxoimidazolidin-1-yl)-6-cyclopropylimidazo[1,2-a]pyridin-2-yl)methyl)(methyl)amino)-6-cyclopropylpyridin-2-yl)-2-(4-methylpyrimidin-2-yl)cyclopropane-1-carboxamide], in assay [1], the EC50 was in the range of 1 to 10 nM. Besides, the IC90 on plasma kallikrein lay in the range of 1500 to 10000 nM.
As for `Cc1ccnc([C@H]2C[C@@H]2C(=O)Nc2cc(N(C)Cc3cn4cc(C5CC5)cc(N5CC(=O)N(CCO)C5=O)c4n3)cc(C3CC3)n2)n1` [Example I-637, (1S,2S)—N-(6-cyclopropyl-4-(((6-cyclopropyl-8-(3-(2-hydroxyethyl)-2,4-dioxoimidazolidin-1-yl)imidazo[1,2-a]pyridin-2-yl)methyl)(methyl)amino)pyridin-2-yl)-2-(4-methylpyrimidin-2-yl)cyclopropane-1-carboxamide], the EC50 in assay [1] was less than 1 nM. The concentration for an effect of 90% (IC90) on plasma kallikrein is less than 400 nM.
Consider `Cc1ccnc([C@H]2C[C@@H]2C(=O)Nc2cc(SCc3cn4cc(C5CC5)cc(N5CC(=O)N(C)C5=O)c4n3)nc(C)n2)n1` [Example I-638, (1S,2S)—N-(6-(((6-cyclopropyl-8-(3-methyl-2,4-dioxoimidazolidin-1-yl)imidazo[1,2-a]pyridin-2-yl)methyl)thio)-2-methylpyrimidin-4-yl)-2-(4-methylpyrimidin-2-yl)cyclopropane-1-carboxamide], for which the EC50 in assay [1] was less than 1 nM. Besides, the IC90 at plasma kallikrein fell in the range of 400 to 1500 nM.
As to `Cc1cc(NC(=O)[C@H]2C[C@@H]2c2nccc(C)n2)cc(NCc2cn3cc(C4CC4)cc(N4CC(=O)N(C)C4=O)c3n2)n1` [Example I-639, (1S,2S)—N-(2-(((6-cyclopropyl-8-(3-methyl-2,4-dioxoimidazolidin-1-yl)imidazo[1,2-a]pyridin-2-yl)methyl)amino)-6-methylpyridin-4-yl)-2-(4-methylpyrimidin-2-yl)cyclopropane-1-carboxamide], the EC50 in assay [1] is less than 1 nM. Also, the 90% effect concentration (IC90) at plasma kallikrein was less than 400 nM.
The corresponding values for `Cc1ccnc([C@H]2C[C@@H]2C(=O)Nc2cc(NCc3cn4cc(C5CC5)cc(N5CC(=O)N(C)C5=O)c4n3)c(C(F)(F)F)nn2)n1` [Example I-640, (1S,2S)—N-(5-(((6-cyclopropyl-8-(3-methyl-2,4-dioxoimidazolidin-1-yl)imidazo[1,2-a]pyridin-2-yl)methyl)amino)-6-(trifluoromethyl)pyridazin-3-yl)-2-(4-methylpyrimidin-2-yl)cyclopropane-1-carboxamide] are less than 1 nM and less than 400 nM.
For `CN1C(=O)CN(c2cc(C3CC3)cn3cc(CN(C)c4cnnc(NC(=O)[C@H]5C[C@@H]5c5cccc(Cl)c5)c4)nc23)C1=O` [Example I-641, (1S,2S)-2-(3-chlorophenyl)-N-(5-(((6-cyclopropyl-8-(3-methyl-2,4-dioxoimidazolidin-1-yl)imidazo[1,2-a]pyridin-2-yl)methyl)(methyl)amino)pyridazin-3-yl)cyclopropane-1-carboxamide], in assay [1], the EC50 was less than 1 nM. On plasma kallikrein, the IC90 was in the range of 400 to 1500 nM.

Broadly, the EC50 is the midpoint of the concentration-response curve. For orientation: IC90 means the concentration at which the effect reaches the 90% level.
